Test results taken from patent US20260193238A1, “PHARMACEUTICAL COMPOUNDS AS PARP7 AND/OR PARP1 INHIBITORS” (Duke Street Bio Limited, priority 2022, published 2026).

target: PARP1 (Homo sapiens, UniProt P09874); test: PARP1 biochemical DELFIA assay (auto-PARylation); conditions: Table 1
Sequence (P09874 whole entry): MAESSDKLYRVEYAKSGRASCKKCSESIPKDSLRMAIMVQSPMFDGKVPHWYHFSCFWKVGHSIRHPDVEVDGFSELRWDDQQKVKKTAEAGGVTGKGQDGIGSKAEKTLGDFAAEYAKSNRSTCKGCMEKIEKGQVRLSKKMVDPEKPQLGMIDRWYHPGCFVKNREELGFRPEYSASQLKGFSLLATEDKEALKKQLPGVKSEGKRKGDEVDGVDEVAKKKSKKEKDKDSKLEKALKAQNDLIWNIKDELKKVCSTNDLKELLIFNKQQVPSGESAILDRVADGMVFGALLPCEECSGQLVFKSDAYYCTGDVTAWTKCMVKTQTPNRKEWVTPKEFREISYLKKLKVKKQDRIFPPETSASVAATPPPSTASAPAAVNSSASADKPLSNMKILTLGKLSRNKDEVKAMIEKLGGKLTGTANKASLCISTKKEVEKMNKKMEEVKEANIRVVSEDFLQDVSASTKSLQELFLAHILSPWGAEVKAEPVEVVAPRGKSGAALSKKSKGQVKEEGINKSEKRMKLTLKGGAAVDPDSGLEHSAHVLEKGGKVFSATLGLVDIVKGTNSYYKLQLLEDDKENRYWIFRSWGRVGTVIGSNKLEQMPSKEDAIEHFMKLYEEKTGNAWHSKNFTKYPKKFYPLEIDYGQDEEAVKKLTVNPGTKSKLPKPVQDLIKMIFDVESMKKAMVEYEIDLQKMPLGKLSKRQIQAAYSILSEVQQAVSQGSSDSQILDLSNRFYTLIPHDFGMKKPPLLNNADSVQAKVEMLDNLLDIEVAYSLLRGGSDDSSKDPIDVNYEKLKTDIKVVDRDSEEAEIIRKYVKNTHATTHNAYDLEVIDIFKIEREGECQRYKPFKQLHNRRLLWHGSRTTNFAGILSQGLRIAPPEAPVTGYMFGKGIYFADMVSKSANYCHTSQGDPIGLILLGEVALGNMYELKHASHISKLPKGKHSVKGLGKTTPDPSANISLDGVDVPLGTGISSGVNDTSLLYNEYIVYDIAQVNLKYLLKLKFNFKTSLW
Description: Prior to assay, wells were washed 3×5 min in coating wash buffer.
% data was fitted to a non-linear regression equation (log inhibitor vs response-variable slope 4-parameters) to obtain IC50 values.

First: 6-(1-(3-oxo-3-(4-(5-(trifluoromethyl)pyrimidin-2-yl)piperazin-1-yl)propyl)azetidin-2-yl)-4-(trifluoromethyl)pyridazin-3(2H)-one [Compound 5rac]
Second: O=C(CCN1CCCCC(c2cc(C(F)(F)F)c(=O)[nH]n2)C1)N1CCN(c2ncc(C(F)(F)F)cn2)CC1 (racemic) [Compound 12rac]
The IC50 of the first is lower: 10 to 100 nM for the first, 100 to 1000 nM for the second. The first is the more potent here.

`O=C(CCN1CCCC(c2cc(C(F)(F)F)c(=O)[nH]n2)C1)N1CCN(c2ncc(F)cn2)CC1` (racemic) [Compound 17rac] and `O=C(CN1CCC(c2cc(C(F)(F)F)c(=O)[nH]n2)C1)N1CCN(c2ncc(C(F)(F)F)cn2)CC1` (racemic) [Compound 19rac] fall in the same range of IC50: 100 to 1000 nM for the first, 100 to 1000 nM for the second.

First: O=C(CCN1CCCC(c2cc(C(F)(F)F)c(=O)[nH]n2)C1)N1CCN(c2ncc(Cl)cn2)CC1 (racemic) [Compound 20rac]
Second: O=C(CCN1CCCCC1c1cc(C(F)(F)F)c(=O)[nH]n1)N1CCN(c2ncc(C(F)(F)F)cn2)CC1 (racemic) [Compound 21rac]
The IC50 of the first is higher: 100 to 1000 nM for the first, 10 to 100 nM for the second.

`CCc1cc(C2CCCN(CCC(=O)N3CCN(c4ncc(C(F)(F)F)cn4)CC3)C2)c[nH]c1=O` (racemic) [Compound 22rac, 3-ethyl-5-(1-(3-oxo-3-(4-(5-(trifluoromethyl)pyrimidin-2-yl)piperazin-1-yl)propyl)piperidin-3-yl)pyridin-2(1H)-one] and `O=C(CCN1CCCC(c2cc(C(F)(F)F)c(=O)[nH]n2)C1)N1CCN(c2cnc(C(F)(F)F)cn2)CC1` (racemic) [Compound 30rac] fall in the same range of IC50: 100 to 1000 nM for the first, 100 to 1000 nM for the second.

`O=C(CCN1CCCC(c2cc(C(F)(F)F)c(=O)[nH]n2)C1)N1CCN(c2ncc(C(F)(F)F)cn2)CC1` (single isomer, unassigned) [Compound 1a, 6-(1-(3-oxo-3-(4-(5-(trifluoromethyl)pyrimidin-2-yl)piperazin-1-yl)propyl)piperidin-3-yl)-4-(trifluoromethyl)pyridazin-3(2H)-one] gave an IC50 of 100 to 1000 nM.
Compared with `O=C(CCN1CCCC(c2cc(C(F)(F)F)c(=O)[nH]n2)C1)N1CCN(c2ncc(C(F)(F)F)cn2)CC1` (single isomer, unassigned) [Compound 1b, 6-(1-(3-oxo-3-(4-(5-(trifluoromethyl)pyrimidin-2-yl)piperazin-1-yl)propyl)piperidin-3-yl)-4-(trifluoromethyl)pyridazin-3(2H)-one], `O=C(CCC1CCN(c2ncc(C(F)(F)F)cn2)CC1)N1CCCC(c2cc(C(F)(F)F)c(=O)[nH]n2)C1` (single isomer, unassigned) [Compound 4a] is higher in IC50: 10 to 100 nM for the first, 100 to 1000 nM for the second. The first is the more potent here.

First: O=C(CCC1CCN(c2ncc(C(F)(F)F)cn2)CC1)N1CCCC(c2cc(C(F)(F)F)c(=O)[nH]n2)C1 (single isomer, unassigned) [Compound 4b]
Second: CCc1cc(C2CCCN(CCC(=O)N3CCN(c4ncc(C(F)(F)F)cn4)CC3)C2)n[nH]c1=O (single isomer, unassigned) [Compound 6a, 4-ethyl-6-(1-(3-oxo-3-(4-(5-(trifluoromethyl)pyrimidin-2-yl)piperazin-1-yl)propyl)piperidin-3-yl)pyridazin-3(2H)-one]
The IC50 of the first is higher: 100 to 1000 nM for the first, 10 to 100 nM for the second. The second is the more potent here.

`CCc1cc(C2CCCN(CCC(=O)N3CCN(c4ncc(C(F)(F)F)cn4)CC3)C2)n[nH]c1=O` (single isomer, unassigned) [Compound 6b, 4-ethyl-6-(1-(3-oxo-3-(4-(5-(trifluoromethyl)pyrimidin-2-yl)piperazin-1-yl)propyl)piperidin-3-yl)pyridazin-3(2H)-one] and `O=C(CCN1CCC(c2cc(C(F)(F)F)c(=O)[nH]n2)C1)N1CCN(c2ncc(C(F)(F)F)cn2)CC1` (single isomer, unassigned) [Compound 7a] fall in the same range of IC50: 100 to 1000 nM for the first, 100 to 1000 nM for the second.

In the case of `O=C(CCN1CCCC(c2cc(C(F)(F)F)c(=O)[nH]n2)C1)N1CCN(c2ccc(F)cn2)CC1` (single isomer, unassigned) [Compound 8a], the IC50 is reported as 100 to 1000 nM.
`O=C(CCN1CCCC(c2cc(C(F)(F)F)c(=O)[nH]n2)C1)N1CCN(c2ccc(F)cn2)CC1` (single isomer, unassigned) [Compound 8b] and `O=C(CCN1CCN(c2ncc(C(F)(F)F)cn2)CC1)N1CCCC(c2cc(C(F)(F)F)c(=O)[nH]n2)C1` (single isomer, unassigned) [Compound 9a] fall in the same range of IC50: 100 to 1000 nM for the first, 100 to 1000 nM for the second.

`N#Cc1ccc(N2CCN(C(=O)CCN3CCCC(c4cc(C(F)(F)F)c(=O)[nH]n4)C3)CC2)nc1` (single isomer, unassigned) [Compound 11b] and `O=C(CCN1CCCC(c2cc(C(F)(F)F)c(=O)[nH]n2)C1)N1CCN(c2ncc(OC(F)(F)F)cn2)CC1` (single isomer, unassigned) [Compound 13a] fall in the same range of IC50: 100 to 1000 nM for the first, 100 to 1000 nM for the second.

`O=C(CN1CCCC(c2cc(C(F)(F)F)c(=O)[nH]n2)C1)N1CCN(c2ncc(C(F)(F)F)cn2)CC1` (single isomer, unassigned) [Compound 14a] gave an IC50 of 10 to 100 nM.
`O=C(CN1CCCC(c2cc(C(F)(F)F)c(=O)[nH]n2)C1)N1CCN(c2ncc(C(F)(F)F)cn2)CC1` (single isomer, unassigned) [Compound 14b] and `O=C(CCN1CCCC(c2cc(C(F)(F)F)c(=O)[nH]n2)C1)N1CCN(c2ccc(Cl)cn2)CC1` (single isomer, unassigned) [Compound 15a] fall in the same range of IC50: 100 to 1000 nM for the first, 100 to 1000 nM for the second.

First: O=C(CCN1CCCC(c2cc(C(F)(F)F)c(=O)[nH]n2)C1)N1CCN(c2ccc(Cl)cn2)CC1 (single isomer, unassigned) [Compound 15b]
Second: O=C(CCN1CCCC1c1cc(C(F)(F)F)c(=O)[nH]n1)N1CCN(c2ncc(C(F)(F)F)cn2)CC1 (single isomer, unassigned) [Compound 18a, 6-(1-(3-oxo-3-(4-(5-(trifluoromethyl)pyrimidin-2-yl)piperazin-1-yl)propyl)pyrrolidin-2-yl)-4-(trifluoromethyl)pyridazin-3(2H)-one]
The IC50 of the first is higher: 100 to 1000 nM for the first, 10 to 100 nM for the second.

First: O=C(CCN1CCCC1c1cc(C(F)(F)F)c(=O)[nH]n1)N1CCN(c2ncc(C(F)(F)F)cn2)CC1 (single isomer, unassigned) [Compound 18b, 6-(1-(3-oxo-3-(4-(5-(trifluoromethyl)pyrimidin-2-yl)piperazin-1-yl)propyl)pyrrolidin-2-yl)-4-(trifluoromethyl)pyridazin-3(2H)-one]
Second: O=C(CN1CCCC1c1cc(C(F)(F)F)c(=O)[nH]n1)N1CCN(c2ncc(C(F)(F)F)cn2)CC1 (single isomer, unassigned) [Compound 24a, 6-(1-(2-oxo-2-(4-(5-(trifluoromethyl)pyrimidin-2-yl)piperazin-1-yl)ethyl)pyrrolidin-2-yl)-4-(trifluoromethyl)pyridazin-3(2H)-one]
The IC50 of the first is lower: 10 to 100 nM for the first, 1000 to 10000 nM for the second.

`O=C(CN1CCCC1c1cc(C(F)(F)F)c(=O)[nH]n1)N1CCN(c2ncc(C(F)(F)F)cn2)CC1` (single isomer, unassigned) [Compound 24b, 6-(1-(2-oxo-2-(4-(5-(trifluoromethyl)pyrimidin-2-yl)piperazin-1-yl)ethyl)pyrrolidin-2-yl)-4-(trifluoromethyl)pyridazin-3(2H)-one] and `O=C(CCN1CCCC(c2c[nH]c(=O)c(C(F)(F)F)c2)C1)N1CCN(c2ncc(C(F)(F)F)cn2)CC1` (single isomer, unassigned) [Compound 25a] fall in the same range of IC50: 10 to 100 nM for the first, 10 to 100 nM for the second.

`O=C(CCN1CCCC(c2c[nH]c(=O)c(C(F)(F)F)c2)C1)N1CCN(c2ncc(C(F)(F)F)cn2)CC1` (single isomer, unassigned) [Compound 25b] and `O=C(CCN1CCCC(c2cc(C(F)(F)F)c(=O)[nH]n2)C1)N1CCN(c2ncc(C(F)(F)F)s2)CC1` (single isomer, unassigned) [Compound 27a] fall in the same range of IC50: 10 to 100 nM for the first, 10 to 100 nM for the second.

Compared with `O=C(CCN1CCCC(c2cc(C(F)(F)F)c(=O)[nH]n2)C1)N1CCN(c2ncc(C(F)(F)F)s2)CC1` (single isomer, unassigned) [Compound 27b], `CNC(=O)c1ccc(N2CCN(C(=O)CCN3CCCC(c4cc(C(F)(F)F)c(=O)[nH]n4)C3)CC2)nc1` (single isomer, unassigned) [Compound 28a] is higher in IC50: 10 to 100 nM for the first, 100 to 1000 nM for the second.

`CNC(=O)c1ccc(N2CCN(C(=O)CCN3CCCC(c4cc(C(F)(F)F)c(=O)[nH]n4)C3)CC2)nc1` (single isomer, unassigned) [Compound 28b] and `O=C(CN1CCN(c2ncc(C(F)(F)F)cn2)CC1)N1CCCC1c1cc(C(F)(F)F)c(=O)[nH]n1` (single isomer, unassigned) [Compound 32a] fall in the same range of IC50: 100 to 1000 nM for the first, 100 to 1000 nM for the second.

Compound `O=C(CN1CCN(c2ncc(C(F)(F)F)cn2)CC1)N1CCCC1c1cc(C(F)(F)F)c(=O)[nH]n1` (single isomer, unassigned) [Compound 32b] has an IC50 of over 10000 nM.

same assay, conditions: Table 1A

`N#Cc1cnc(N2CCN(C(=O)CN3CCCC3c3cc(C(F)(F)F)c(=O)[nH]n3)CC2)s1` (racemic) [Compound 44rac] and `O=C(CN1CCCC1c1cc(C(F)(F)F)c(=O)[nH]n1)N1CCN(c2ncc(C(F)(F)F)s2)CC1` (racemic) [Compound 52rac] cannot be ordered by IC50: 10 to 100 nM for the first, at most 10 nM for the second.

Compared with `N#Cc1ccc(N2CCN(C(=O)CN3CCCC3c3cc(C(F)(F)F)c(=O)[nH]n3)CC2)nc1` (racemic) [Compound 47rac], `CNC(=O)c1ccc(N2CCN(C(=O)CN3CCC3c3cc(C(F)(F)F)c(=O)[nH]n3)CC2)cn1` (racemic) [Compound 53rac] is higher in IC50: 10 to 100 nM for the first, 100 to 1000 nM for the second.

First: O=C(CN1CCCC1c1c[nH]c(=O)c(C(F)(F)F)c1)N1CCN(c2ncc(C(F)(F)F)cn2)CC1 (racemic) [Compound 60rac, 5-(1-(2-oxo-2-(4-(5-(trifluoromethyl)pyrimidin-2-yl)piperazin-1-yl)ethyl)pyrrolidin-2-yl)-3-(trifluoromethyl)pyridin-2(1H)-one]
Second: N#Cc1[nH]c(=O)c(C(F)(F)F)cc1C1CCCN1CC(=O)N1CCN(c2ncc(C(F)(F)F)cn2)CC1 (racemic) [Compound 115rac]
The IC50 of the first is lower: 100 to 1000 nM for the first, over 10000 nM for the second.

First: O=C(CN1CCCC1c1cc(C2CC2)c(=O)[nH]n1)N1CCN(c2ncc(C(F)(F)F)cn2)CC1 (racemic) [Compound 65rac]
Second: O=C(CN1CCCC1c1cc(Cl)c(=O)[nH]n1)N1CCN(c2ncc(C(F)(F)F)cn2)CC1 (racemic) [Compound 68rac, 4-chloro-6-(1-(2-oxo-2-(4-(5-(trifluoromethyl)pyrimidin-2-yl)piperazin-1-yl)ethyl)pyrrolidin-2-yl)pyridazin-3(2H)-one]
The IC50 of the first is lower: 10 to 100 nM for the first, 100 to 1000 nM for the second. The first is the more potent here.

In the case of `O=C(CN1CCCC1c1cc(C(F)(F)F)c(=O)[nH]n1)NC1CCN(c2ncc(C(F)(F)F)cn2)CC1` (single isomer, unassigned) [Compound 33b], the IC50 is reported as 100 to 1000 nM.
